Results taken from patent US7659304B2, “Tryptophan derivative and application thereof” (priority 2005, dated 2010).

Tests used:
[1] = test system: osteoblasts; assay: Influence on osteoblasts: alkaline phosphatase (ALP) activity in cultured goldfish scales; format: cell-based; details: for ALP activity: Amount of para-nitrophenol produced (mean ± standard error): 10^−6 M, scales cultured at 25° C. for 6 hours, control 1.37 ± 0.18
Procedure: The influence of the tryptophan derivatives on bone cells was tested according to a method described in N. Suzuki and A. Hattori, J. Pineal Res., 33, 253-258 (2002). Required pieces of scales were ablated from female goldfish (body weight: around 30 g) under anesthesia with MS222 (ethyl 3-aminobenzoate, methane sulfonic acid salt) (Aldrich). The scales were washed twice with an Eagle's minimum essential medium (Dainippon Pharmaceutical Co., Ltd.) containing 1% antibiotic (penicillin-streptomycin mixture). The same medium was added at 1 ml/well to a 24-well plate. The scales were added at several pieces (usually eight)/well thereto. Each tryptophan derivative was added at a concentration of 10^−6 M to each well. Subsequently, these scales were cultured at 25° C. for 6 hours. A tryptophan derivative-free group (control) was also prepared to compare the effects on bone cells. In this test, two groups, one for osteoclasts and the other for osteoblasts, were used for the tryptophan derivatives and compared them with the control. To ensure the obtained results, the duplicate test was performed. Thus, in the 24-well plate, 6 tryptophan derivatives can be examined. After culture, the medium was removed. The scales were fixed by the addition of 0.05 M cacodylic acid buffer (pH 7.4) containing 10% formalin. These scales were stored in 0.05 M cacodylic acid buffer at 4° C. until enzyme activity measurement. • (1) […] The scales treated by fixation were moved and weighed. After measurement, the scales were put into a 96-well microplate. To each well, 2001 of 100 mM tris-HCl buffer (pH 9.5) containing 10 mM para-nitrophenol phosphate (substrate), 1 mM magnesium chloride, and 0.1 mM zinc chloride was added. Reaction was performed at 25° C. for 15 minutes and terminated by the addition of a 3 M sodium hydroxide aqueous solution (50 μl). Then, 150 μl of the solution after the completion of reaction was transferred to another microplate. The amount of p-NP produced by ALP was measured with a spectrophotometer (405 nm) to determine the activity.

[2] = test system: bone metabolism of ovariectomized model rat; assay: Effect on bone metabolism of ovariectomized model rat (femur pQCT); format: in vivo; details: OVX rats, 0.17 mg/rat by gavage once a day for 6 weeks
Procedure: A test substance was the compound No. 4 ((S)-(+)-N-acetyl-2,4,6-tribromo-5-methoxytryptophan methyl ester), which was a white powder having a molecular weight of 527, and was stored at room temperature. Commercially available dimethyl sulfoxide (DMSO, Wako Pure Chemical Industries, Ltd.) was purchased as a solvent and stored at room temperature. • 2. Method for Preparing Test Substance
The solution of the test substance was administered in a volume of 100 μL/rat in consideration of the toxicity of the solvent. For a dose of 0.17 mg of the test substance (compound No. 4)/rat, 86.6 mg of the test substance was weighed and dissolved in 50.9 mL of the solvent (0.17 mg/0.1 mL). • 3. Animal Used and Raising Conditions
Five-week-old female SPF SD (Crl:SD) rats were obtained from Charles River Laboratories Japan, Inc. After seven-day acclimation and quarantine, 6-week-old ovariectomized models were prepared. Administration was performed from the day following model preparation.
The animals were raised in the rat/mouse room of a test laboratory set to a temperature of 24±3° C., a humidity of 50±20%, the number of ventilations of approximately 10 to 20 times/hour, a lighting time of 12 hours/day (8:00 light on, 20:00 light off), and an illuminance of 150 to 300 Lux. • 4. Administration Method
The test substance was administered once a day for 6 weeks by gavage administration to the rats without anesthesia under non-fasting by use of a feeding needle made of a metal and a syringe barrel. In this context, 1 week is defined as 7 days, and the day following ovariectomy when the administration was initiated is defined as Day 1. The amount of the solution administered was set to 0.1 mL/rat.
The bone densities of the left femurs were measured using a peripheral bone density measurement apparatus PQCT (abbreviation of peripheral Quantitative Computed Tomography, XCT-Research SA+, Stratec). For cancellous bone parameter measurement, the metaphyseal region was sliced at a distance of 3 mm from the distal growth cartilage. Alternatively, for cortical bone parameter measurement, the diaphyseal region was sliced at a distance of 13 mm therefrom. The measurement parameters were a bone density (total density and cancellous bone), an area (total area and cancellous bone), and SSI (Stress Strain Index) for the metaphyseal region and were the bone density, area, and thickness of the cortical bone, a periosteal circumference length, an endosteal circumference length, and SSI for the diaphyseal region. Software used was Rev.5.50e.

[3] = test system: osteoclasts; assay: Influence on osteoclasts: tartrate-resistant acid phosphatase (TRAP) activity in cultured goldfish scales; format: cell-based; details: for TRAP activity: Amount of para-nitrophenol produced (mean ± standard error): 10^−6 M, scales cultured at 25° C. for 6 hours, control 0.700 ± 0.041
Procedure: The influence of the tryptophan derivatives on bone cells was tested according to a method described in N. Suzuki and A. Hattori, J. Pineal Res., 33, 253-258 (2002). Required pieces of scales were ablated from female goldfish (body weight: around 30 g) under anesthesia with MS222 (ethyl 3-aminobenzoate, methane sulfonic acid salt) (Aldrich). The scales were washed twice with an Eagle's minimum essential medium (Dainippon Pharmaceutical Co., Ltd.) containing 1% antibiotic (penicillin-streptomycin mixture). The same medium was added at 1 ml/well to a 24-well plate. The scales were added at several pieces (usually eight)/well thereto. Each tryptophan derivative was added at a concentration of 10^−6 M to each well. Subsequently, these scales were cultured at 25° C. for 6 hours. A tryptophan derivative-free group (control) was also prepared to compare the effects on bone cells. In this test, two groups, one for osteoclasts and the other for osteoblasts, were used for the tryptophan derivatives and compared them with the control. To ensure the obtained results, the duplicate test was performed. Thus, in the 24-well plate, 6 tryptophan derivatives can be examined. After culture, the medium was removed. The scales were fixed by the addition of 0.05 M cacodylic acid buffer (pH 7.4) containing 10% formalin. These scales were stored in 0.05 M cacodylic acid buffer at 4° C. until enzyme activity measurement. • (1) Influence on Osteoclasts: Tartrate-Resistant Acid Phosphatase (TRAP) Activity Measurement The scales treated by fixation were moved and weighed. After measurement, the scales were put into a 96-well microplate. To each well, 2001 of 100 mM acetate buffer (pH 5.3) containing 20 mM tartrate and 10 mM para-nitrophenol phosphate (substrate) was added. Reaction was performed at 25° C. for 20 minutes and subsequently terminated by the addition of a 3 M sodium hydroxide aqueous solution (50±1). Then, […] of the solution after the completion of reaction was transferred to another microplate. The amount of para-nitrophenol (p-NP) produced by TRAP was measured with a spectrophotometer (405 nm). The osteoclast activity was indicated as the amount of p-NP produced by the decomposition of para-nitrophenol phosphate per g of scale per minute.

[4] = test system: osteoblasts; details: literature report; cited from earlier work
[5] = test system: osteoclasts; details: literature report; cited from earlier work

Work on `COC(=O)[C@H](Cc1c(Br)[nH]c2cc(Br)c(OC)cc12)NC(C)=O` [Compound 2, (S)-(+)-N-acetyl-2,6-dibromo-5-methoxytryptophan methyl ester] yielded a melting point of 174 to 175 °C.

`COC(=O)[C@H](Cc1c(Br)[nH]c2c(Br)cc(OC)c(Br)c12)NC(C)=O` [Compound 3, (S)-(+)-N-acetyl-2,4,7-tribromo-5-methoxytryptophan methyl ester] showed a melting point of 218 to 220 °C.

In the case of `COC(=O)[C@H](Cc1c(Br)[nH]c2cc(Br)c(OC)c(Br)c12)NC(C)=O` [Compound 4, (S)-(+)-N-acetyl-2,4,6-tribromo-5-methoxytryptophan methyl ester], the “ALP activity: Amount of para-nitrophenol produced (mean ± standard error)” value (from here on “ALP activity: Amount … (mean ± standard error)”) [1] is reported as 2.62 ± 0.20 nmol/g of scale/min, the “bone density of the cancellous bone (metaphyseal region) compared with OVX + Vehicle group (in words)” value [2] is reported as “increased” and the “change in the diaphyseal region compared with OVX + Vehicle group (in words)” value [2] is reported as “no change”. For the same compound, the “total bone density of the metaphyseal region compared with OVX + Vehicle group (in words)” value [2] was “increased”, the “Diaphyseal region SSI Polar” value ([2]; left femur, OVX + Vehicle 6.753 ± 0.380) was 6.877 ± 0.605 and the “Diaphyseal region Endosteal circumference length” value ([2]; left femur, OVX + Vehicle 8.360 ± 0.467) was 8.260 ± 0.666 mm. The “Metaphyseal region Area Cancellous bone” value ([2]; left femur, OVX + Vehicle 9.47 ± 1.52) was 7.44 ± 0.47 mm^2, the “Metaphyseal region SSI Polar” value ([2]; left femur, OVX + Vehicle 9.801 ± 0.574) was 11.474 ± 0.346 and the “Diaphyseal region Periosteal circumference length” value ([2]; left femur, OVX + Vehicle 11.819 ± 0.333) was 11.729 ± 0.455 mm. For the same compound, the “Metaphyseal region Area Total area” value ([2]; left femur, OVX + Vehicle 21.69 ± 1.61) was 23.67 ± 1.34 mm^2, the “Metaphyseal region Bone density Cancellous bone” value ([2]; left femur, OVX + Vehicle 192.9 ± 24.6) was 253.4 ± 2.9 mg/mL and the “Metaphyseal region Bone density Total density” value ([2]; left femur, OVX + Vehicle 473.1 ± 29.3) was 520.4 ± 31.7 mg/mL. For the same compound, the “Diaphyseal region Thickness” value ([2]; cortical bone, left femur, OVX + Vehicle 0.551 ± 0.021) was 0.552 ± 0.038 mm, the “Diaphyseal region Area” value ([2]; cortical bone, left femur, OVX + Vehicle 5.55 ± 0.02) was 5.50 ± 0.17 mm^2 and the “Diaphyseal region Bone density” value ([2]; cortical bone, left femur, OVX + Vehicle 1265.7 ± 15.9) was 1254.9 ± 14.6 mg/mL. For the same compound, the “TRAP activity: Amount of para-nitrophenol produced (mean ± standard error)” value (“TRAP activity: Amount … (mean ± standard error)” for short) [3] was 0.699 ± 0.064 nmol/g of scale/min and the melting point was 198 to 199 °C.

For `COC(=O)[C@H](Cc1c(Br)n(C(=O)OC(C)(C)C)c2cc(Br)c(OC)c(Br)c12)NC(C)=O` [Compound 5, (S)-(+)-N-acetyl-2,4,6-tribromo-1-t-butoxycarbonyl-5-methoxytryptophan methyl ester], the “ALP activity: Amount … (mean ± standard error)” value [1] was 2.48 ± 0.42 nmol/g of scale/min and the “TRAP activity: Amount … (mean ± standard error)” value [3] was 0.747 ± 0.063 nmol/g of scale/min.

For `C=CCn1c(Br)c(C[C@H](NC(C)=O)C(=O)OC)c2c(Br)c(OC)c(Br)cc21` [Compound 6, (S)-(+)-N-acetyl-1-allyl-2,4,6-tribromo-5-methoxytryptophan methyl ester], the “ALP activity: Amount … (mean ± standard error)” value [1] was 2.39 ± 0.40 nmol/g of scale/min and the “TRAP activity: Amount … (mean ± standard error)” value [3] was 0.882 ± 0.106 nmol/g of scale/min.

For `C#CCn1c(Br)c(C[C@H](NC(C)=O)C(=O)OC)c2c(Br)c(OC)c(Br)cc21` [Compound 7, (S)-(+)-N-acetyl-2,4,6-tribromo-5-methoxy-1-propargyltryptophan methyl ester], the “ALP activity: Amount … (mean ± standard error)” value [1] was 2.50 ± 0.51 nmol/g of scale/min and the “TRAP activity: Amount … (mean ± standard error)” value [3] was 0.838 ± 0.056 nmol/g of scale/min.

With `COC(=O)[C@H](Cc1c(Br)n(Cc2ccccc2)c2cc(Br)c(OC)c(Br)c12)NC(C)=O` [Compound 8, (S)-(+)-N-acetyl-1-benzyl-2,4,6-tribromo-5-methoxytryptophan methyl ester] the “ALP activity: Amount … (mean ± standard error)” value [1] was 1.17 ± 0.32 nmol/g of scale/min and the “TRAP activity: Amount … (mean ± standard error)” value [3] was 0.829 ± 0.047 nmol/g of scale/min.

In the case of `COc1ccc2[nH]cc(CCNC(C)=O)c2c1` [Melatonin, N-acetyl-5-methoxytryptamine, reference compound], the “ALP activity: Amount … (mean ± standard error)” value [1] is listed as 1.06 ± 0.17 nmol/g of scale/min, the “action on osteoblasts (in words)” value ([1]; conclusion from Table 2) is listed as “inhibitory” and the “action on osteoblasts (in words), reported in Non-Patent Document 1” value [4] is listed as “inhibitory”. For the same compound, the “TRAP activity: Amount … (mean ± standard error)” value [3] was 0.467 ± 0.052 nmol/g of scale/min, the “action on osteoclasts (in words)” value ([3]; conclusion from Table 1) was “inhibitory” and the “action on osteoclasts (in words), reported in Non-Patent Document 1” value [5] was “inhibitory”.
